Experimental data published in patent US20130203718A1 (priority 2010, published 2013).

Target: T1, hAR (Homo sapiens, UniProt P10275)
T1 construct: expressed in transfected cells; host or cells: HEK 293T
T1 sequence (P10275 1-920): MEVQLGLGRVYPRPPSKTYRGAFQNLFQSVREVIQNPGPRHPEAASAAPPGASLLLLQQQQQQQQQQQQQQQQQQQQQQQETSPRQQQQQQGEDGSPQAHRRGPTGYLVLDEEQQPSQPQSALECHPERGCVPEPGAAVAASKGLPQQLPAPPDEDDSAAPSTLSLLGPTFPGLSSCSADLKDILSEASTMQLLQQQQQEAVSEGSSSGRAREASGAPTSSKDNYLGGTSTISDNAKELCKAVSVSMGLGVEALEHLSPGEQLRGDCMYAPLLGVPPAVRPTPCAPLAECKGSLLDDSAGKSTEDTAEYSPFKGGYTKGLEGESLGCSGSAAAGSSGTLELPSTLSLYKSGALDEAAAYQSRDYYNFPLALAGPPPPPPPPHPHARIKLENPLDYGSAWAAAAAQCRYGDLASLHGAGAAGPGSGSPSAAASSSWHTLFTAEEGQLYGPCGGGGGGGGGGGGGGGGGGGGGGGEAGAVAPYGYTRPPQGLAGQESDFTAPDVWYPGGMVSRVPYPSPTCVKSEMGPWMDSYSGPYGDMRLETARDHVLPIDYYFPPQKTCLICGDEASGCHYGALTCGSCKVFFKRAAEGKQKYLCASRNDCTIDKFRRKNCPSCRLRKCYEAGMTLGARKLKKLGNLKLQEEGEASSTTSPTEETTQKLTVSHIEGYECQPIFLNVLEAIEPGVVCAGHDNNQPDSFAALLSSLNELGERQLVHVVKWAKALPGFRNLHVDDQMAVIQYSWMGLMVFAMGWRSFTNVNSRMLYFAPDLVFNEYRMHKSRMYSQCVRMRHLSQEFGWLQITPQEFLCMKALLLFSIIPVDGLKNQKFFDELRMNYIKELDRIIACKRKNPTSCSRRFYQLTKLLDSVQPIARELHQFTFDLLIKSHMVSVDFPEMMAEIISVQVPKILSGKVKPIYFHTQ
Assay: APRn selectivity: transactivation in HEK293T cells transiently expressing hAR
Type: cell-based
Conditions: for agonist efficacy towards hAR (in words): HEK293T, FIG. 11; for selectivity for hPR vs hAR, hGR and hMR (in words): conclusion from hAR, hGR and hMR transactivation assays
Procedure: Measurement of the APRn Selectivity in HEK 293T.
The HEK-293T cells were cultured and transfected according to the method described above for the PR transactivation assays. The expression vectors pcDNA-hAR, kindly provided by G. A. Coetzee, pchGR (Hellal-Levy, C et al. FEBS Lett 1999, 464, 9), and pchMR (Fagart, J. et al. EMBO J. 1998, 17, 3317) were used for studying the ability of APRn to activate or inactivate the AR, GR and MR, respectively. For each transfection assays, 2 μg of the expression vector was used together with 7 μg of the GRE2-Luc reporter vector. Dihydrotestosterone (DHT), dexamethasone (Dex) and Aldosterone (Aldo) were selected as AR, GR and MR ligands, respectively. They were used at the concentration of 10^−9 M. The APRn agonist and antagonist efficacy for AR, GR and MR were measured as described above for PR. The results are the mean±SEM of three independent experiments.
Transfection assays were performed in HEK 293T cells by using expression vectors for the hAR, hGR and hMR and the GRE2-Luc reporter used for the PR transactivation assays.

SMILES: C[C@]12CCC3C(CC=C4C[C@@H](F)CC[C@@H]43)C1CCC2=O (stereo partly drawn) [APR-47, 3β-Fluoro-19-nor-androst-5-en-17-one]
- agonist efficacy towards hAR (in words): low agonist efficacy
- selectivity for hPR vs hAR, hGR and hMR (in words): selective hPR antagonists

SMILES: CC#C[C@]1(O)CCC2C3CC[C@H]4CCCC[C@]4(C)C3CC[C@@]21C (stereo partly drawn) [APR-42, 17α-(1-Propynyl)-5α-androstan-17β-ol]
- agonist efficacy towards hAR (in words): low agonist efficacy
- selectivity for hPR vs hAR, hGR and hMR (in words): selective hPR antagonists

SMILES: CC(=O)[C@H]1CC[C@H]2[C@@H]3CC=C4C[C@@H](F)CC[C@]4(C)[C@H]3CC[C@]12C [APR-16, 3β-Fluoropregn-5-en-20-one]
- agonist efficacy towards hAR (in words): low agonist efficacy
- selectivity for hPR vs hAR, hGR and hMR (in words): selective hPR antagonists
